Measurements reported in patent US12697349B2, “Compositions and methods for treating RAS-mutant cancers” (MEMORIAL SLOAN KETTERING CANCER CENTER, priority 2019, dated 2026).

Experiments:
[1] = system: KRas^G12D; p53^-/- pancreatic cancer organoid tumors; test: In vivo drug treatment, KRas^G12D; p53^-/- pancreatic cancer organoids transplanted into the pancreas; set-up: species or system mice; conditions: 10 mg/kg, one per day, 5 days per week, intraperitoneal, 1 week, versus vehicle
Experimental: KRas^G12D; p53^−/− organoids were transplanted in recipient mice, and the mice were treated with vehicle only or auranofin (n=3-4) for 1 week. Tumor weights were measured and plotted.
(§1) In vivo drug treatment experiments. For auranofin treatment trials, 16 mg auranofin was first solved in 4 mL ethanol, and then diluted with 12 mL PBS to a final concentration of 1 mg/ml. Mice were given daily auranofin (10 mg/kg) or a similar volume of vehicle by intraperitoneal injection. The sick animals were sacrificed and pancreatic tissues and tumors were used for further analysis.
(§2) Growth inhibitory effects of pharmacological TXNRD1 inhibition was also examined in additional murine PDAC models generated by transplanting KRas^G12D; p53^−/− pancreatic cancer organoid lines into the pancreas of recipient mice. Mice were treated either with vehicle only, acting as a negative control, or auranofin. […] Thus, TXNRD1 is required for the maintenance of KRAS-mutant tumors and dependency in vivo.

[2] = system: MIAPaCa-2 (KRAS mutant); test: In vivo drug treatment, human xenograft model (KRAS mutant); set-up: species or system mice; conditions: auranofin 10 mg/kg intraperitoneal, 2 weeks, versus vehicle
Experimental: MIAPaCa-2 (KRAS mutant) or Colo357 (KRAS wild-type) organoids were transplanted into the pancreases of recipient mice. The mice were treated with vehicle only or auranofin (n=5) for 2 weeks. Tumor weights were measured and plotted.
as §1, §2

[3] = system: mPDAC cells; test: In vitro growth inhibition by auranofin, CellTiter-Glo viable cell numbers; assay type: cell-based, murine; conditions: 72 hr, increasing doses, normalized to DMSO-treated cells
Experimental: (§3) Relative proliferation was calculated by measuring viable cell numbers, and normalizing to the viable cell numbers of DMSO-treated cells, which were set to 1. Relative proliferation was then plotted as a function of auranofin concentration and fit to an exponential curve.
(§4) Proliferation assays. Competitive proliferation assays using shRNAs in TRMPV-Neo vector (with miR-30 or miR-E backbone) were performed as described previously (Huang et al., Genes Dev. 28(16): 1800-1814 (2014)). Assays for in vitro growth inhibition by auranofin or piperlongumine were performed by counting the viable cell numbers using CellTiter-Glo Luminescent Cell Viability Assay (Promega) after incubation of cells in the presence of increasing concentrations of auranofin or piperlongumine for 72 hr. Proliferation rates were calculated by dividing viable cell numbers at 72 hr by the viable cell numbers at 0 hr. Relative proliferation rates were calculated by normalizing to the proliferation rate of vehicle-treated cells.
Auranofin is an inhibitor of enzymatic activity of TXNRD1 (See Gromer et al., J Biol Chem 273(32): 20096-20101). Myricetin, manumycin A and protoporphyrin IX are also inhibitors of enzymatic activity of TXNRD1. mPDAC cells were treated with the TXNRD1 inhibitor auranofin or DMSO for 72 hr, and viability was measured. DMSO treatment served as a negative control causing a lack of growth inhibition. […]

[4] = system: human pancreatic cancer cell lines (KRAS mutant and wild-type KRAS); test: In vitro growth inhibition by auranofin or piperlongumine in a panel of pancreatic cancer cell lines; assay type: cell-based
Experimental: as §3, with “curve. L3.3, Colo357, and BXPC3 have wild-type KRAS, and rest of the cell lines harbor a KRAS mutation.” for “curve.”
Cancer cells harboring different KRAS mutations (G12C, G12D, G12V) or wild-type allele were assayed. Relative proliferation was calculated by measuring viable cell numbers, and normalizing to the viable cell numbers of DMSO-treated cells, which were set to 1. Relative proliferation was then plotted as a function of auranofin concentration and fit to an exponential curve.
as §4
Since the screening system discussed above and FIGS. 1A-3B was driven by mutant Kras, p53 loss and Myc overexpression, whether alterations in either gene could dictate sensitivity to TXNRD1 inhibition was investigated. Twelve pancreatic cancer cell lines were treated with increasing concentration of auranofin or DMSO. Among the cell lines used in this experiment L3.3, Colo357, and BXPC3 have wild-type KRAS. The cell lines PANC0327, MIAPaCa-2, PANC0213, ASPC1, 8898, CFPAC-1, L3.6pl, PANC1 and SU8686 harbored KRAS mutations.
To understand whether the observed difference between sensitivities of wild-type KRAS cells and KRAS mutant cells, was statistically significant, the IC50 data of the relative sensitivity of human PDAC cell lines to TXNRD1 inhibition by auranofin was compared. […] To understand the effect of KRAS mutations (G12C, G12D, G12V) on auranofin sensitivity, human pancreatic cancer cells harboring different KRAS mutations (G12C, G12D, G12V) or wild-type were treated with another TXNRD1 inhibitor piperlongumine.

[5] = system: MIAPaCa-2 (KRAS^G12C) and PSN1 (KRAS^G12R) pancreatic cancer cell lines; test: Drug combination growth inhibition and synergy analysis (CompuSyn, Combination Index); assay type: cell-based, human; conditions: KRAS-mutant pancreatic cancer cells MIAPaCa-2 and PSN1
Text: Data presented as mean of three independent experiments (n=3). […] Each CI score represents data from at least three independent experiments.
CompuSyn software (Version 1.0) (http://www.combosyn.com), which is based on the Median-Effect Principle and the Combination Index-Isobologram Theorem was used to analyze drug synergism. Combination index (CI) values CI>1 indicates antagonism; CI=0.75-1.25 indicates additive effects; and <1 indicates synergism. Each GI (Growth inhibition) or CI score represents data from at least three independent experiments.

Row | SMILES | tumor growth (tumor weights) [1] | tumor growth inhibition (tumor weights) [2] | growth inhibition of mPDAC cells (relative proliferation) [3] | correlation of anti-proliferative response (IC50) with KRAS mutational status ([4]; human PDAC cell lines, n=12) | correlation of response (IC50) with p53 mutational status or MYC mRNA expression ([4]; human pancreatic cancer cell lines, n=9) | sensitivity to auranofin, KRAS mutant versus wild-type KRAS cells ([4]; twelve pancreatic cancer cell lines, 72 hours, increasing concentration) | antiproliferative effect [5] | sensitivity to piperlongumine, KRAS mutant versus wild-type KRAS cells ([4]; cells with KRAS G12C, G12D, G12V or wild-type, 72 hours)
1 | CC(=O)OC[C@H]1O[C@@H]([S-])[C@H](OC(C)=O)[C@@H](OC(C)=O)[C@@H]1OC(C)=O.CCP(CC)CC.[Au+] [auranofin] | triggered a delay in Kras-mutant tumor growth | growth inhibitory effects of pharmacological TXNRD1 inhibition was found | inhibited growth of mPDAC cells at submicromolar concentration | significant correlation | no significant correlation | KRAS mutant cells were generally more sensitive to auranofin than the wild-type KRAS cells | antiproliferative effects | 
2 | COc1cc(/C=C/C(=O)N2CCC=CC2=O)cc(OC)c1OC [piperlongumine] |  |  |  |  |  |  |  | KRAS mutant cells were more sensitive to piperlongumine than the wild-type KRAS cells
